Test results from BindingDB's records for doi:10.1007/s00044-010-9334-1 (n/a, 2011).
pEC50: −log10 of the molar value.

Test: Inhibition of microtubule polymerisation in Rattus norvegicus (rat) A10 cells

Structure (SMILES)	pEC50
COc1ccc(C2C=C(c3cc(OC)c(OC)c(OC)c3)NC(=S)N2)cc1O (configuration not stated)	5.36
COc1cc(OC)c(C2C=C(c3cc(OC)ccc3OC)NC(=S)N2)c(OC)c1 (configuration not stated)	5.54
